# Literature values, collected in patent publication US20110015245A1, “BENDAMUSTINE AMPHIPHILIC CATIONIC COMPOSITIONS” (priority 2009, published 2011).
# Where a name gives a salt, the structure may show the parent alone.
# Settings: 23° C.
smiles,measurement,value
Cn1c(CCCC(=O)O)nc2cc(N(CCCl)CCCl)ccc21 [bendamustine hydrochloride],time stable in saline solution,9 h
